According to patent publication US9487515B2, “Compounds modulating c-fms and/or c-kit activity and uses therefor” (Plexxikon Inc., priority 2006, dated 2016):

Target: c-kit (Homo sapiens, UniProt P10721)
Assay: c-kit assays of Examples 40 and 41 (AlphaScreen kinase assays at 10 and 100 μM ATP, 33P-ATP filter assay, M-07e SCF-stimulated proliferation and phosphorylation)

Chain of c-kit (P10721 with tags, fused parts or gaps): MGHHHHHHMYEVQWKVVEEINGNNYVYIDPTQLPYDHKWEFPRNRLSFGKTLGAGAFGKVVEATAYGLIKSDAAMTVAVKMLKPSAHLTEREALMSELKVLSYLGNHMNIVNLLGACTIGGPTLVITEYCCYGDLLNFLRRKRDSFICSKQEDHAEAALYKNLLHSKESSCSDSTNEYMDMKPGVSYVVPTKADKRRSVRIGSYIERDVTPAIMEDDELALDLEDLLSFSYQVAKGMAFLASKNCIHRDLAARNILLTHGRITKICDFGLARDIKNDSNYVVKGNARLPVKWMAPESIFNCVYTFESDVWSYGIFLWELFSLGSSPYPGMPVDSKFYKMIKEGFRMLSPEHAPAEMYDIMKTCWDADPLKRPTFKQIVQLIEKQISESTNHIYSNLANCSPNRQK

| SMILES | IC50 [nM] |
| --- | --- |
| O=C(Nc1ccc(Cc2c[nH]c3ncccc23)cn1)c1ccc(F)c(C(F)(F)F)c1 [P-0112, 4-Fluoro-N-[5-(1H-pyrrolo[2,3-b]pyridin-3-ylmethyl)-pyridin-2-yl]-3-trifluoromethyl-benzamide] | < 1000 |
| Fc1ccc(CNc2ncc(Cc3c[nH]c4ncc(Cl)cc34)s2)cc1 [P-0290, [5-(5-Chloro-1H-pyrrolo[2,3-b]pyridin-3-ylmethyl)-thiazol-2-yl]-(4-fluoro-benzyl)-amine] | < 1000 |
| Clc1ccc(CNc2ccc(Cc3c[nH]c4ncccc34)cn2)c(Cl)c1 [P-0342, (2,4-Dichloro-benzyl)-[5-(1H-pyrrolo[2,3-b]pyridin-3-ylmethyl)-pyridin-2-yl]-amine] | < 1000 |
| c1ccc(N2CCOCC2)c(CNc2ccc(Cc3c[nH]c4ncccc34)cn2)c1 [P-0358, (2-Morpholin-4-yl-benzyl)-[5-(1H-pyrrolo[2,3-b]pyridin-3-ylmethyl)-pyridin-2-yl]-amine] | < 1000 |
| COc1cnc2[nH]cc(Cc3ccc(NCc4ccccc4C(F)(F)F)nc3)c2c1 [P-0326, [5-(5-Methoxy-1H-pyrrolo[2,3-b]pyridin-3-ylmethyl)-pyridin-2-yl]-(2-trifluoromethyl-benzyl)-amine] | < 1000 |
| Cc1ccc(F)cc1C(=O)Nc1ccc(Cc2c[nH]c3ncccc23)cn1 [P-0118, 5-Fluoro-2-methyl-N-[5-(1H-pyrrolo[2,3-b]pyridin-3-ylmethyl)-pyridin-2-yl]-benzamide] | < 1000 |
| Clc1cnc2[nH]cc(Cc3sc(NCc4c(Cl)cncc4Cl)nc3Cl)c2c1 [P-0253, [4-Chloro-5-(5-chloro-1H-pyrrolo[2,3-b]pyridin-3-ylmethyl)-thiazol-2-yl]-(3,5-dichloro-pyridin-4-ylmethyl)-amine] | < 1000 |
| N#Cc1cnc2[nH]cc(Cc3ccc(NCc4ccc(Cl)cc4)nc3)c2c1 [P-0257, 3-[6-(4-Chloro-benzylamino)-pyridin-3-ylmethyl]-1H-pyrrolo[2,3-b]pyridine-5-carbonitrile] | < 1000 |
| CC(Nc1ccc(Cc2c[nH]c3ncccc23)cn1)c1ccc(S(C)(=O)=O)cc1 (centres unmarked) [P-0097, [1-(4-Methanesulfonyl-phenyl)-ethyl]-[5-(1H-pyrrolo[2,3-b]pyridin-3-ylmethyl)-pyridin-2-yl]-amine] | < 1000 |
| Cc1cccc(C(=O)Nc2ccc(Cc3c[nH]c4ncccc34)cn2)c1 [P-0122, 3-Methyl-N-[5-(1H-pyrrolo[2,3-b]pyridin-3-ylmethyl)-pyridin-2-yl]-benzamide] | < 1000 |
| Fc1ccc(C(F)(F)F)c(CNc2ccc(Cc3c[nH]c4ncccc34)cn2)c1 [P-0375, (5-Fluoro-2-trifluoromethyl-benzyl)-[5-(1H-pyrrolo[2,3-b]pyridin-3-ylmethyl)-pyridin-2-yl]-amine] | < 1000 |
| Clc1cccc(CNc2ccc(Cc3c[nH]c4ncccc34)cn2)c1Cl [P-0351, (2,3-Dichloro-benzyl)-[5-(1H-pyrrolo[2,3-b]pyridin-3-ylmethyl)-pyridin-2-yl]-amine] | < 1000 |
| FC(F)(F)c1ccc(CNc2ncc(Cc3c[nH]c4ncc(Cl)cc34)cn2)cc1 [P-0266, [5-(5-Chloro-1H-pyrrolo[2,3-b]pyridin-3-ylmethyl)-pyrimidin-2-yl]-(4-trifluoromethyl-benzyl)-amine] | < 1000 |
| FC(F)(F)c1ccccc1CNc1ccc(Cc2c[nH]c3ncccc23)cn1 [P-0226, [5-(1H-Pyrrolo[2,3-b]pyridin-3-ylmethyl)-pyridin-2-yl]-(2-trifluoromethyl-benzyl)-amine] | < 1000 |
| Cc1ccc(CNc2ccc(Cc3c[nH]c4ncccc34)cn2)c(F)c1 [P-0368, (2-Fluoro-4-methyl-benzyl)-[5-(1H-pyrrolo[2,3-b]pyridin-3-ylmethyl)-pyridin-2-yl]-amine] | < 1000 |
| COc1ccc(CNc2ccc(Cc3c[nH]c4ncc(C#N)cc34)cn2)cn1 [P-0284, 3-{6-[(6-Methoxy-pyridin-3-ylmethyl)-amino]-pyridin-3-ylmethyl}-1H-pyrrolo[2,3-b]pyridine-5-carbonitrile] | < 1000 |
| COc1cnc2[nH]cc(Cc3ccc(NCc4ccccc4Cl)nc3)c2c1 [P-0328, (2-Chloro-benzyl)-[5-(5-methoxy-1H-pyrrolo[2,3-b]pyridin-3-ylmethyl)-pyridin-2-yl]-amine] | < 1000 |
| Fc1c(Cl)cccc1CNc1ncc(Cc2c[nH]c3ncccc23)cn1 [P-0311, (3-Chloro-2-fluoro-benzyl)-[5-(1H-pyrrolo[2,3-b]pyridin-3-ylmethyl)-pyrimidin-2-yl]-amine] | < 1000 |
| O=C(c1ccc(NCc2ccc(F)cc2)nc1)c1c[nH]c2ncccc12 [P-0015, [6-(4-Fluoro-benzylamino)-pyridin-3-yl]-(1H-pyrrolo[2,3-b]pyridin-3-yl)-methanone] | < 1000 |
| Clc1ccc(CNc2ncc(Cc3c[nH]c4ncccc34)cn2)c(Cl)c1 [P-0305, (2,4-Dichloro-benzyl)-[5-(1H-pyrrolo[2,3-b]pyridin-3-ylmethyl)-pyrimidin-2-yl]-amine] | < 1000 |
| COc1cccc(CNc2nc(Cl)c(Cc3c[nH]c4ncc(Cl)cc34)s2)c1 [P-0193, [4-Chloro-5-(5-chloro-1H-pyrrolo[2,3-b]pyridin-3-ylmethyl)-thiazol-2-yl]-(3-methoxy-benzyl)-amine] | < 1000 |

| SMILES | IC50 [nM] |
| --- | --- |
| N#Cc1cnc2[nH]cc(Cc3ccc(NCc4ccccc4F)nc3)c2c1 [P-0271, 3-[6-(2-Fluoro-benzylamino)-pyridin-3-ylmethyl]-1H-pyrrolo[2,3-b]pyridine-5-carbonitrile] | < 1000 |
| Cc1nc(NCc2ccc(F)cc2)sc1Cc1c[nH]c2ncccc12 [P-0163, (4-Fluoro-benzyl)-[4-methyl-5-(1H-pyrrolo[2,3-b]pyridin-3-ylmethyl)-thiazol-2-yl]-amine] | < 1000 |
| Cc1cc(CNc2ccc(Cc3c[nH]c4ncccc34)cn2)no1 [P-0095, (5-Methyl-isoxazol-3-ylmethyl)-[5-(1H-pyrrolo[2,3-b]pyridin-3-ylmethyl)-pyridin-2-yl]-amine] | < 1000 |
| Fc1ccc(CNc2ccc(Cc3c[nH]c4ncccc34)cn2)c(C(F)(F)F)c1 [P-0225, (4-Fluoro-2-trifluoromethyl-benzyl)-[5-(1H-pyrrolo[2,3-b]pyridin-3-ylmethyl)-pyridin-2-yl]-amine] | < 1000 |
| Fc1cccc(CCNc2ccc(Cc3c[nH]c4ncccc34)cn2)c1 [P-0128, [2-(3-Fluoro-phenyl)-ethyl]-[5-(1H-pyrrolo[2,3-b]pyridin-3-ylmethyl)-pyridin-2-yl]-amine] | < 1000 |
| CCCOc1ccccc1CNc1ccc(Cc2c[nH]c3ncccc23)cn1 [P-0357, (2-Propoxy-benzyl)-[5-(1H-pyrrolo[2,3-b]pyridin-3-ylmethyl)-pyridin-2-yl]-amine] | < 1000 |
| COc1cccc(CNc2ccc(Cc3c[nH]c4ncccc34)cn2)c1Cl [P-0359, (2-Chloro-3-methoxy-benzyl)-[5-(1H-pyrrolo[2,3-b]pyridin-3-ylmethyl)-pyridin-2-yl]-amine] | < 1000 |
| CN(C)CCCOc1ccccc1CNc1ccc(Cc2c[nH]c3ncccc23)cn1 [P-0369, [2-(3-Dimethylamino-propoxy)-benzyl]-[5-(1H-pyrrolo[2,3-b]pyridin-3-ylmethyl)-pyridin-2-yl]-amine] | < 1000 |
| Fc1c(CNc2ccc(Cc3c[nH]c4ncccc34)cn2)cccc1C(F)(F)F [P-0365, (2-Fluoro-3-trifluoromethyl-benzyl)-[5-(1H-pyrrolo[2,3-b]pyridin-3-ylmethyl)-pyridin-2-yl]-amine] | < 1000 |
| O=C(Nc1ccc(Cc2c[nH]c3ncccc23)cn1)c1ccc(F)cc1Cl [P-0101, 2-Chloro-4-fluoro-N-[5-(1H-pyrrolo[2,3-b]pyridin-3-ylmethyl)-pyridin-2-yl]-benzamide] | < 1000 |
| Cc1cc(CNc2nc(Cl)c(Cc3c[nH]c4ncccc34)s2)sc1C [P-0208, [4-Chloro-5-(1H-pyrrolo[2,3-b]pyridin-3-ylmethyl)-thiazol-2-yl]-(4,5-dimethyl-thiophen-2-ylmethyl)-amine] | < 1000 |
| Fc1cccc(Cl)c1CNc1nc(Cl)c(Cc2c[nH]c3ncc(Cl)cc23)s1 [P-0243, [4-Chloro-5-(5-chloro-1H-pyrrolo[2,3-b]pyridin-3-ylmethyl)-thiazol-2-yl]-(2-chloro-6-fluoro-benzyl)-amine] | < 1000 |
| CC(Nc1ccc(Cc2c[nH]c3ncccc23)cn1)c1ccccc1F (centres unmarked) [P-0127, [1-(2-Fluoro-phenyl)-ethyl]-[5-(1H-pyrrolo[2,3-b]pyridin-3-ylmethyl)-pyridin-2-yl]-amine] | < 1000 |
| O=C(c1ccc(Nc2cccc(O)c2)nc1)c1c[nH]c2ncccc12 [P-0027, [6-(3-Hydroxy-phenylamino)-pyridin-3-yl]-(1H-pyrrolo[2,3-b]pyridin-3-yl)-methanone] | < 1000 |
| CCc1nc(C)c(CNc2nc(Cl)c(Cc3c[nH]c4ncccc34)s2)[nH]1 [P-0205, [4-Chloro-5-(1H-pyrrolo[2,3-b]pyridin-3-ylmethyl)-thiazol-2-yl]-(2-ethyl-5-methyl-3H-imidazol-4-ylmethyl)-amine] | < 1000 |
| COc1ncccc1CNc1ccc(Cc2c[nH]c3ncc(C)cc23)cn1 [P-0285, (2-Methoxy-pyridin-3-ylmethyl)-[5-(5-methyl-1H-pyrrolo[2,3-b]pyridin-3-ylmethyl)-pyridin-2-yl]-amine] | < 1000 |
| N#Cc1cnc2[nH]cc(Cc3ccc(NCc4ccccc4Cl)nc3)c2c1 [P-0281, 3-[6-(2-Chloro-benzylamino)-pyridin-3-ylmethyl]-1H-pyrrolo[2,3-b]pyridine-5-carbonitrile] | < 1000 |
| O=C(Nc1ccc(Cc2c[nH]c3ncccc23)cn1)c1ccccn1 [P-0107, Pyridine-2-carboxylic acid [5-(1H-pyrrolo[2,3-b]pyridin-3-ylmethyl)-pyridin-2-yl]-amide] | < 1000 |
| N#Cc1cnc2[nH]cc(Cc3ccc(NCc4ccccc4OC(F)F)nc3)c2c1 [P-0339, 3-[6-(2-Difluoromethoxy-benzylamino)-pyridin-3-ylmethyl]-1H-pyrrolo[2,3-b]pyridine-5-carbonitrile] | < 1000 |
| CS(=O)(=O)c1ccc(CNc2ccc(Cc3c[nH]c4ncccc34)cn2)c(Cl)c1 [P-0387, (2-Chloro-4-methanesulfonyl-benzyl)-[5-(1H-pyrrolo[2,3-b]pyridin-3-ylmethyl)-pyridin-2-yl]-amine] | < 1000 |
